Measurements: patent US6579686B2, “Constitutive androstane receptor” (SmithKline Beecham Corporation, priority 2000, dated 2003)
Entries after “also recorded” stand apart in the source; their conditions may differ. Where two headings read alike, the source gives them in different places.

Tests used:
hCAR LBD = molecular target: T1, hCAR LBD (Homo sapiens, UniProt Q14994); test: Scintillation proximity binding assay with [3H]clotrimazole; details: 10 nM [3H]clotrimazole, 10 μM competitor
T1 construct: or 103-348 of hCAR; made in house; host or cells: E. coli BL21(DE3), pRSETa
T1 sequence (Q14994 103-348 isoform Q14994-2): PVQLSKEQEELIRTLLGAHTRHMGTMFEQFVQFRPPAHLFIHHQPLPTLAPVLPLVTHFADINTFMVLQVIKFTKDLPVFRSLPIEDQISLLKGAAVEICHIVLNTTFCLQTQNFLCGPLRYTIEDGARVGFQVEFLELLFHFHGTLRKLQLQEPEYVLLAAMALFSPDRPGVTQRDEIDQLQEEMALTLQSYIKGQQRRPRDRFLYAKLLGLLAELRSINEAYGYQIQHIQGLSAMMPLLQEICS
Experimental: Scintillation proximity binding assay. Streptavidin polyvinyltoluene SPA beads (Amersham Pharmacia Biotech) were resuspended in assay buffer (50 mM Tris, 50 mM KCl, 1 mM CHAPS, 0.1 mg/ml BSA, 10 mM DTT). Biotinylated hCAR LBD was added to a final concentration of 50 nM. The amount of biotinylated receptor can be varied to account for variations in the extent of biotinylation and/or the observed S/N ratio for different batches of receptor. […] The receptor/bead mixture was allowed to incubate at room temperature for 15 min with gentle agitation. Uncoupled receptor was removed by centrifuging the receptor/bead mixture at 2500 rpm for 10 min and pouring off the supernatant. Receptor-coupled beads were resuspended in assay buffer and a second wash performed. All experiments were run in Costar 96-well SPA plates using an assay volume of 100 μl.

mouse CAR (mCAR) [1] = molecular target: T2, mouse CAR (mCAR) (Mus musculus, UniProt O35627)
T2 sequence (O35627 1-358): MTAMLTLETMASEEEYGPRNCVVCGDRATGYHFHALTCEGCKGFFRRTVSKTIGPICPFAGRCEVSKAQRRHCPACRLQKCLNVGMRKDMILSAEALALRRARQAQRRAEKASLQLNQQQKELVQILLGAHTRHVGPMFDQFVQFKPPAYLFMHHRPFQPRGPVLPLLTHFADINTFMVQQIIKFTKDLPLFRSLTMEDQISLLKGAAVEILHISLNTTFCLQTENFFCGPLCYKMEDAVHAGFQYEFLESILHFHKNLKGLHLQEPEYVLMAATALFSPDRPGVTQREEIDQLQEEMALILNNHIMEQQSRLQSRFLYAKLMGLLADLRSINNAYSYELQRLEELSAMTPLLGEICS

hCAR/SRC-1 interaction = molecular target: T3, hCAR/SRC-1 interaction (Homo sapiens, UniProt Q14994); test: FRET ligand sensing assay, hCAR LBD with SRC-1 LXXLL peptide; format: biochemical; details: SRC-1 peptide amino acids 676 to 700
T3 construct: or 103-348 of hCAR; made in house; host or cells: E. coli BL21(DE3), pRSETa
T3 sequence (Q14994 103-348 isoform Q14994-2): T1 sequence (Q14994 103-348 isoform Q14994-2)
Experimental: The mCAR and hCAR LBD were each expressed in E. coli strain BL21(DE3) as a polyhistidine-tagged fusion protein. […] Cells were lysed by passing 3 times through an APV Rannie MINI-lab homogenizer and cell debris was removed by centrifugation (30 minutes, 20,000 g, 4° C.). After adjusting the imidazole concentration to 50 mM, the lysate was loaded onto a column packed with Sepharose [Ni^++ charged] Chelation resin (Pharmacia) and pre-equilibrated with TBS pH 8.0/50 mM imidazole. […] The recombinant protein was eluted with a gradient from 50 to 500 mM imidazole. Column peak fractions were pooled immediately and diluted 5-7 fold with 25 mM Tris pH 8.0, containing 5% 1,2-propanediol, 0.5 mM EDTA and 5 mM DTT. The diluted protein sample was then loaded onto a column packed with Poros HQ resin (PerSeptive Biosystems) and eluted with a gradient from 0-500 mM NaCl. Peak fractions were pooled and concentrated using Centri-prep 10K (Amicon) and subjected to size exclusion, using a column packed with Superdex-75 resin (Pharmacia) pre-equilibrated with TBS, pH 8.0, containing 5% 1,2-propanediol, 0.5 mM EDTA and 5 mM DTT.
The purified CAR LBDs were desalted/buffer exchanged using PD-10 gel filtration columns into PBS [100 mM NaPhosphate, pH 7.2, 150 mM NaCl]. […]
Fluorescence resonance energy transfer (FRET) ligand sensing assay. […]

human CAR (hCAR) [2] = molecular target: T4, human CAR (hCAR) (Homo sapiens, UniProt Q14994); test: cell-based
T4 sequence (Q14994 1-348 isoform Q14994-2): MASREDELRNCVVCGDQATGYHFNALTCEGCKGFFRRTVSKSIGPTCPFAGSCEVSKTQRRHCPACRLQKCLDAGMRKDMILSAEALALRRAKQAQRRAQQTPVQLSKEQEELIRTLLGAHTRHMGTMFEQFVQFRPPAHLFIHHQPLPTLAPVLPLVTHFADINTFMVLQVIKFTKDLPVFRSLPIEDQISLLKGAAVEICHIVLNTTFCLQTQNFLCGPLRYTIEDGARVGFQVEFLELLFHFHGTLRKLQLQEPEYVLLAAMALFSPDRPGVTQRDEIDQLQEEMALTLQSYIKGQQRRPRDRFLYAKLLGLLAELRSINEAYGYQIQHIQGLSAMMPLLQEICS

human CAR (hCAR) [3] = molecular target: T4, human CAR (hCAR); details: for EC50: read-out: EC50 values for activation/deactivation of CAR, HCAR, transfected CV-1 cells, 0.0001 μM to 10 μM in half-log steps, EC50 given only for ≧ 2-fold activation or deactivation relative to basal activity
mouse CAR (mCAR) [4] = molecular target: T2, mouse CAR (mCAR); test: in vitro
human CAR (hCAR) [5] = molecular target: T4, human CAR (hCAR); test: in vitro
[6] = CV-1 cells, PB tested at 0.5 mM (high concentrations)
[7] = read-out: EC50 values for activation/deactivation of CAR, mCAR, transfected CV-1 cells, 0.0001 μM to 10 μM in half-log steps, EC50 given only for ≧ 2-fold activation or deactivation relative to basal activity

Row | Compound | competition with [3H]clotrimazole for binding to hCAR (in words) (hCAR LBD) | effect on mCAR reporter activity (in words) (mouse CAR (mCAR) [1]; CV-1 cells, screened at 10 μM) | EC50 at 24 h (mouse CAR (mCAR) [4]) | EC50 (mouse CAR (mCAR) [1]; [7]) | effect on hCAR reporter activity (in words) (human CAR (hCAR) [3]; CV-1 cells, screened at 10 μM) | EC50 (human CAR (hCAR) [3]) | also measured
1 | CC(=O)[C@H]1CC[C@H]2[C@@H]3CC[C@@H]4CC(=O)CC[C@]4(C)[C@H]3CC[C@]12C [5β-pregnane-3,20-dione] | competed efficiently | only weak effects | > 10 µM | – | – | – | effect on hCAR LBD/SRC-1 interaction (in words) (hCAR/SRC-1 interaction): marked increase in the binding of SRC-1 to hCAR; EC50 (human CAR (hCAR) [2]): 670 nM; activation of hCAR (human CAR (hCAR) [3]; CV-1 cells, relative to basal activity): ~2 fold
2 | CCC1(c2ccccc2)C(=O)NC(=O)NC1=O [PB, phenobarbital] | – | – | – | – | – | – | effect on mCAR reporter activity (in words) (mouse CAR (mCAR) [1]; [6]): weak but reproducible deactivation; effect on hCAR reporter activity (in words) (human CAR (hCAR) [3]; [6]): weak but reproducible deactivation; also recorded: deactivated hCAR
3 | CC#C[C@]1(O)CC[C@H]2[C@@H]3CCC4=CC(=O)CCC4=C3[C@@H](c3ccc(N(C)C)cc3)C[C@@]21C [RU486] | – | – | > 10 µM | – | – | – | EC50 at 24 h (human CAR (hCAR) [5]): > 10 µM
4 | CCOP(=O)(OCC)C(=Cc1cc(C(C)(C)C)c(O)c(C(C)(C)C)c1)P(=O)(OCC)OCC [SR12813] | did not compete | little or no effect | – | > 10000 nM | little or no effect; also recorded: little or no activity | > 10 µM | –
5 | Clc1cnc(Oc2ccc(Oc3ncc(Cl)cc3Cl)cc2)c(Cl)c1 [TCPOBOP, 1,4-bis[2-(3,5-dichloropyridyloxy)]benzene] | did not compete | efficacious activator of mCAR | – | 100 nM | virtually no activity; also recorded: little or no activity | > 10 µM | EC50 (mouse CAR (mCAR) [1]; read-out: EC50 for activation of mCAR, CV-1 cells): ~100 nM
6 | C[C@@]12CCC[C@H]1[C@@H]1CC[C@H]3C[C@@H](O)CC[C@]3(C)[C@H]1CC2 [androstanol] | competed efficiently | efficacious deactivator of mCAR | – | 840 nM | deactivated hCAR, though the effect was not nearly as pronounced as on mCAR | > 10 µM | effect on hCAR LBD/SRC-1 interaction (in words) (hCAR/SRC-1 interaction): disrupted this interaction
7 | Clc1ccccc1C(c1ccccc1)(c1ccccc1)n1ccnc1 [clotrimazole] | – | – | – | – | efficacious deactivator of hCAR | – | –
8 | C[C@@H]1C[C@H]2[C@@H]3CCC4=CC(=O)C=C[C@]4(C)[C@@]3(F)[C@@H](O)C[C@]2(C)[C@@]1(O)C(=O)CO [dexamethasone] | – | – | > 10 µM | – | – | – | EC50 at 24 h (human CAR (hCAR) [5]): > 10 µM
